Data taken from US20260108527A1, “POLO LIKE KINASE 4 INHIBITORS” (ORIC Pharmaceuticals, Inc., priority 2022, published 2026).

Key:
[1] = target: T1, human recombinant Aurora A (Homo sapiens, UniProt O14965); test: Aurora A Kinase Biochemical Assay (ADP-Glo); conditions: selectivity ratio; Aurora A 2.5 nM, 20 μM ATP
T1 construct: purchased ThermoFisher PR5935A
T1 sequence (O14965 1-403): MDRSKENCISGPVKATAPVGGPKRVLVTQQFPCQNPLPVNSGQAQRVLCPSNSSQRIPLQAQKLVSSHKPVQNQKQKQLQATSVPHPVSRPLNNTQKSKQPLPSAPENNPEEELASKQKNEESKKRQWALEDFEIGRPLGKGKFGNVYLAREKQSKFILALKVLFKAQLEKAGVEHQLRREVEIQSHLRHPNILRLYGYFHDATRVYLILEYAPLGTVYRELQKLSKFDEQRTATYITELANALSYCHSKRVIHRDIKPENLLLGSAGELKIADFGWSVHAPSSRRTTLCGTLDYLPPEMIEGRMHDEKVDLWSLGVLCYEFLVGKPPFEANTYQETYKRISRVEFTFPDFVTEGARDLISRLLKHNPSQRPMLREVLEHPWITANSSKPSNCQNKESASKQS
Method in brief: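 Human recombinant Aurora A at 2.5 nM final was preincubated with compound (11-point, 3-fold titration) for 15 min at RT, then reacted with 20 μM ATP and 4.7 μM MBP for 2 h at RT in HEPES pH 7.5 buffer. ADP formed was read by ADP-Glo luminescence; IC50 from four-parameter fit.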

human recombinant PLK4 = target: T2, human recombinant PLK4 (Homo sapiens, UniProt O00444); test: PLK4 Biochemical Assay (ADP-Glo); conditions: 0.5 nM PLK4, 8.0 μM ATP, 4.7 μM MBP, 6 hours at RT
T2 construct: purchased ThermoFisher PV6396
T2 sequence (O00444 1-970): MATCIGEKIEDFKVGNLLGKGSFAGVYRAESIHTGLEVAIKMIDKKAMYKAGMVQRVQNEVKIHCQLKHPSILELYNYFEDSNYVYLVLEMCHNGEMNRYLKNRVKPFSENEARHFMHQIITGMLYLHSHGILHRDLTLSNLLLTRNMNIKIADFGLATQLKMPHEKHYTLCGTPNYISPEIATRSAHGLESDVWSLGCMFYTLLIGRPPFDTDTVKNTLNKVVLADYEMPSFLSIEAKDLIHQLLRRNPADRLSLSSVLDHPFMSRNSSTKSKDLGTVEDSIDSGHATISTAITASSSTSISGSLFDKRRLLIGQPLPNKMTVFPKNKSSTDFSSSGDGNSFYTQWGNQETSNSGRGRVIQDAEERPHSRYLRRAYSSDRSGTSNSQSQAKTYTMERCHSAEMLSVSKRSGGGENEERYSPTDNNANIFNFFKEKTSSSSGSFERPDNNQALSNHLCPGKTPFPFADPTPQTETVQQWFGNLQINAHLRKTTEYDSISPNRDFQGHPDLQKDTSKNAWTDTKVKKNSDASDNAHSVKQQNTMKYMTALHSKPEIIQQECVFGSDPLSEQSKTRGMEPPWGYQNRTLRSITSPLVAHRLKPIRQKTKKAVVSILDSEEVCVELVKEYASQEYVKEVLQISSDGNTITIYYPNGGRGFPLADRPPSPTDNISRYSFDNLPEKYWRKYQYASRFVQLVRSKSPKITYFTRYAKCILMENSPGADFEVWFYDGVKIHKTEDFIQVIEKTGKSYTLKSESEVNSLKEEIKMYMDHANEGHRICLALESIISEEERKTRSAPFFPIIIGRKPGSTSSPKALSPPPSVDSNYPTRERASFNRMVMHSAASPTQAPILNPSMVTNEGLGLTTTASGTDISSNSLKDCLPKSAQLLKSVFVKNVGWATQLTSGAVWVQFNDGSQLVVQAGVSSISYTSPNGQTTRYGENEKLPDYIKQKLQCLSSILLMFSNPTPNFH
Method in brief: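 PLK4 at 1.0 nM in HEPES pH 7.5 buffer with 10 mM MgCl2, 1 mM EGTA, 1 mM DTT, preincubated 15 min at RT with compound. ADP formed quantified by ADP-Glo luminescence after ATP depletion. IC50 from four-parameter non-linear regression.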

| SMILES | [Aurora A IC50 (nM)]/[PLK4 IC50 (nM)] [1] | IC50 (human recombinant PLK4) |
| --- | --- | --- |
| COc1ccc2c(c1)[C@]1(C[C@H]1c1ccc3c(Nc4cc(-c5cocn5)ccc4OC)n[nH]c3c1)C(=O)N2 [Example 16, (1R,2S)-5′-methoxy-2-{3-[2-methoxy-5-(1,3-oxazol-4-yl)anilino]-1H-indazol-6-yl}spiro[cyclopropane-1,3′-indol]-2′(1′H)-one] | 259.1 | 0.894 nM |
| COc1ccc2c(c1)[C@]1(C[C@H]1c1ccc3c(Nc4ccc(S(C)(=O)=O)cc4OC)n[nH]c3c1)C(=O)N2 [Example 2, (1R,2S)-2-{3-[4-(methanesulfonyl)-2-methoxyanilino]-1H-indazol-6-yl}-5′-methoxyspiro[cyclopropane-1,3′-indol]-2′(1′H)-one] | 801.1462 | 0.576 nM |
| CCOc1ccc(-c2cnn(C)c2)cc1Nc1n[nH]c2cc([C@@H]3C[C@@]34C(=O)Nc3ccc(OC)cc34)ccc12 [Example 37, (1R,2S)-2-{3-[2-ethoxy-5-(1-methyl-1H-pyrazol-4-yl)anilino]-1H-indazol-6-yl}-5′-methoxyspiro[cyclopropane-1,3′-indol]-2′(1′H)-one] | 27839.6436 | 1.8 nM |
| COc1ccc2c(c1)[C@]1(C[C@H]1c1ccc3c(Nc4cc(-c5cnn(C)c5)ccc4OC)n[nH]c3c1)C(=O)N2 [Example 11, (1R,2S)-5′-methoxy-2-{3-[2-methoxy-5-(1-methyl-1H-pyrazol-4-yl)anilino]-1H-indazol-6-yl}spiro[cyclopropane-1,3′-indol]-2′(1′H)-one] | 897.6923 | 0.52 nM |
| COc1ccc2c(c1)[C@]1(C[C@H]1c1ccc3c(Nc4ccc(-c5nnn(C)n5)cc4OC)n[nH]c3c1)C(=O)N2 [Example 17, (1R,2S)-5′-methoxy-2-{3-[2-methoxy-4-(2-methyl-2H-tetrazol-5-yl)anilino]-1H-indazol-6-yl}spiro[cyclopropane-1,3′-indol]-2′(1′H)-one] | 1000 | 2 nM |
| COc1ccc2c(c1)[C@]1(C[C@H]1c1ccc3c(Nc4cc(-c5cnn(CC(F)F)c5)cnc4OC)n[nH]c3c1)C(=O)N2 [Example 46, (1R,2S)-2-(3-((5-(1-(2,2-difluoroethyl)-1H-pyrazol-4-yl)-2-methoxypyridin-3-yl)amino)-1H-indazol-6-yl)-5′-methoxyspiro[cyclopropane-1,3′-indolin]-2′-one] | 469.9759 | 1.25 nM |
| COc1ccc2c(c1)[C@]1(C[C@H]1c1ccc3c(Nc4cc(-c5nccs5)ccc4OC)n[nH]c3c1)C(=O)N2 [Example 14, (1R,2S)-5′-methoxy-2-{3-[2-methoxy-5-(1,3-thiazol-2-yl)anilino]-1H-indazol-6-yl}spiro[cyclopropane-1,3′-indol]-2′(1′H)-one] | 187.4804 | 0.639 nM |

More lines, in order of falling IC50 (human recombinant PLK4), values ahead:

| [Aurora A IC50 (nM)]/[PLK4 IC50 (nM)] [1] | IC50 (human recombinant PLK4) | SMILES |
| --- | --- | --- |
| 992.1456 | 0.84 nM | COc1ccc2c(c1)[C@]1(C[C@H]1c1ccc3c(Nc4cc(-c5cnn(C)c5)cnc4OC)n[nH]c3c1)C(=O)N2 [Example 26, (1R,2S)-5′-methoxy-2-(3-{[2-methoxy-5-(1-methyl-1H-pyrazol-4-yl)pyridin-3-yl]amino}-1H-indazol-6-yl)spiro[cyclopropane-1,3′-indol]-2′(1′H)-one] |
| 2164 | 0.797 nM | COc1ccc2c(c1)[C@]1(C[C@H]1c1ccc3c(Nc4cc5c(cc4OC)S(=O)(=O)CC5)n[nH]c3c1)C(=O)N2 [Example 1, 6-methoxy-5-({6-[(1R,2S)-5′-methoxy-2′-oxo-1′,2′-dihydrospiro[cyclopropane-1,3′-indol]-2-yl]-1H-indazol-3-yl}amino)-2,3-dihydro-1H-1-benzothiophene-1,1-dione] |
| 500 | 0.71 nM | COc1ccc2c(c1)[C@]1(C[C@H]1c1ccc3c(Nc4cc(-c5cnco5)ccc4OC)n[nH]c3c1)C(=O)N2 [Example 18, (1R,2S)-5′-methoxy-2-{3-[2-methoxy-5-(1,3-oxazol-5-yl)anilino]-1H-indazol-6-yl}spiro[cyclopropane-1,3′-indol]-2′(1′H)-one] |
| 567.6936 | 0.708 nM | CCS(=O)(=O)c1ccc(Nc2n[nH]c3cc([C@@H]4C[C@@]45C(=O)Nc4ccc(OC)cc45)ccc23)c(OC)c1 [Example 5, (1R,2S)-2-{3-[4-(ethanesulfonyl)-2-methoxyanilino]-1H-indazol-6-yl}-5′-methoxyspiro[cyclopropane-1,3′-indol]-2′(1′H)-one] |
